From patent publication US8987526B2, “Partially halogenated, hydroxylated fullerene and allergen adsorbent using the same” (Osaka University, priority 2010, dated 2015)

Target: T1, cedar pollen allergen (Cry j1) (Cryptomeria japonica, UniProt P18632)
T1 sequence (P18632 22-374): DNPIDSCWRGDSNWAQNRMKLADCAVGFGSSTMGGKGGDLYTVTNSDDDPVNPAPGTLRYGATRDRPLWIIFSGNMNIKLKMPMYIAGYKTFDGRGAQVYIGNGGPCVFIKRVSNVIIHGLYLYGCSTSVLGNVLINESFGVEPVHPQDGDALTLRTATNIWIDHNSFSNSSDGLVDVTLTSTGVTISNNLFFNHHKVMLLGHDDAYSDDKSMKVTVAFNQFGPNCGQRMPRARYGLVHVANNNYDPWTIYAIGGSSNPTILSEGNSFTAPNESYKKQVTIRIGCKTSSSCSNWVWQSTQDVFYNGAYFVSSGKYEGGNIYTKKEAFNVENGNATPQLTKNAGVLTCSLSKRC
Assay: Function test of the sample to cedar pollen allergen (Cry j1): allergen adsorption, supernatant measured by sandwich ELISA
Type: binding
Experimental: A 1% (by weight/volume) sample solution was prepared from each of the compounds synthesized in Examples 1 to 5, an allergen (Cry j1) dissolved into a phosphate buffer solution was added into the sample solution so as to give 100 ng/mL of the concentration thereof, and then, they were mixed by using a vortex; thereafter, reaction was carried out with shaking the mixture at 4° C. The solution was recovered at the respective predetermined intervals ([…]); and a supernatant thereof after centrifugal separation was analyzed as to the allergen concentration (A) by using a sandwich ELISA method (Enzyme-Linked Immunosorbent Assay). […] Reduction rate (%)=(B−A)/B×100
Specific procedure of the sandwich ELISA method will now be described. Anti-Cry j1 antibody is immobilized in each well of a microplate; and after cleaning it, post coating thereof is conducted. After further cleaning, a sample solution or a standard allergen solution is added thereinto to carry out a primary reaction. After cleaning thereof, an anti-Cry j1 biotin-labeled antibody is added thereinto to carry out a secondary reaction. After further cleaning thereof, an enzyme reagent streptavidin HRP is added thereinto; and after cleaning thereof, an o-phenylenedimaine substrate is added thereinto to carry out a chromogenic reaction. After termination of the reaction by adding dilute sulfuric acid, absorbance at the wavelength of 490 nm is measured by using a microplate reader. From a calibration curve predetermined by using the standard allergen solution, allergen concentration in each sample solution is obtained.

[1] = 1% (w/v) sample solution, 100 ng/mL Cry j1, 4° C., at 5 minutes

Substance | allergen reduction rate [1] | allergen reduction rate (conditions similar to Test Example 1, after 60 minutes)
C60Cl5 (OH)15.5H2O [Example 4] | 90% | –
C60(OH)44.8H2O [reference compound] | – | 6.2%
C60Cl15(OH)15.9H2O [Example 3] | 90% | –
